Experimental data as given in patent US11180459B2, “Bacterial efflux pump inhibitors” (RUTGERS, THE STATE UNIVERSITY OF NEW JERSEY, priority 2017, dated 2021).
Counter-ions that a name gives are not always drawn. Marks after values point to notes of the source that are not given here.

Columns and labels:
[1] = test system: P. aeruginosa ATCC 27853; assay: Intrinsic MIC assay (broth microdilution); type: cell-based; settings: Pseudomonas aeruginosa
Method: (§1) MIC assays were conducted in accordance with Clinical and Laboratory Standards Institute (CLSI) guidelines for broth microdilution.
The intrinsic MIC of the experimental EPIs was tested with the method described. The 2-fold serial dilution begins with 100 μg/mL of tested compound in the first column of the 96-well plates.

[2] = test system: P. aeruginosa [ATCC 27853]; assay: Mouse septicemia model of infection; type: in vivo, Swiss Webster female mice; settings: Experiment #521, cefepime 10 mg/ml b.i.d.
Method: A general method for the in vivo assessment of bacterial EPIs is complicated by the fact that that both the antibiotic and the EPI need to be present for synergy to be achieved. A general method was discovered that has proven to be effective in establishing the relative efficacy of bacterial EPIs in a mouse septicemia model. The bacterial EPI is administered initially intravenously to mice with septicemia, followed 5 minutes later by the intravenous administration or oral administration of the antibiotic. A second administration of the EPI is then administered subcutaneously after an additional 5 minutes to act as a booster, followed by the final administration of the antibiotic either intravenously or orally after the second administration of the EPI. […] In a few instances, a second regiment of both EPI and antibiotic as administered on day 1 was required after 24 hours to affect cures.
Determination of the in vivo efficacy of bacterial efflux pump inhibitors (EPIs) can be efficiently determined using a mouse septicemia model of infection. The systemic infection is initiated by a 500 ul intraperitoneal injection of an inoculum containing bacteria (such as P. aeruginosa [ATCC 27853]) at a concentration of approximately 5×10^5 cells in 5% mucin in Swiss Webster female mice. […]

[3] = test system: P. aeruginosa ATCC 27853; assay: Pre-exposure bacterial EPI assay (MIC against bacteria pre-exposed to 1/2 x MIC antibiotic); type: cell-based; settings: Pseudomonas aeruginosa, ATCC27853, read-out: MIC of cefepime against P. aeruginosa pre-exposed to cefepime
From the text: The principle underlying this pre-exposure is that exposure of the bacteria to sub-inhibitory concentrations of the test antibiotic will induce expression of efflux pumps, if any, and may represent the scenario in vivo more accurately.

[4] = test system: Escherichia coli ATCC 25922; assay: Standard EPI assay: clarithromycin MIC with EPI; type: cell-based; settings: clarithromycin as antibiotic; E. coli ATCC 25922; EPI at 6.25 (μg)
Method: as §1
(§2) The EPI assay for the purposes of these studies represents a MIC assay in which the MIC of the antibiotic against the bacteria is tested in the presence of an experimental efflux pump inhibitor (EPI). The highest concentration of the EPI present in the assay typically is ½ of the intrinsic MIC of the compound. If the intrinsic MIC of the EPI is greater than 100 μg/mL, the EPI assay was tested with 50 μg/mL. Using serial dilutions of the EPI, its enhancement of antibiotic activity was then evaluated. The relative EPI activity was decided by comparing the MIC of the antibiotic in the presence of the EPI compound with the intrinsic MIC of the antibiotic alone. For the evaluation of the efficacy of an EPI against bacteria that were pre-exposed to an antibiotic, the inoculum of bacteria that used was developed from a bacterial culture isolated as a single colony following exposure at ½ the MIIC of the antibiotic (so as to induce efflux pump expression), was to be used in combination with the EPI.
(§3) In our standard EPI assay, the MIC of the test antibiotic is determined in the absence and presence of sub-inhibitory concentrations of the EPI. Initially, the sub-inhibitory concentration used was ½×MIC of the EPI. […] The MIC of levofloxacin against P. aeruginosa ATCC 27853 in the absence of EPI is 1 μg/mL. […] Similar methodology was employed to examine the synergy with Escherichia coli ATCC 25922 in the presence of varied concentrations of these EPIs using clarithromycin as the antibiotic.

[5] = test system: Pseudomonas aeruginosa ATCC 27853; assay: Standard EPI assay: levofloxacin MIC with EPI; type: cell-based; settings: P. aeruginosa ATCC 27853; for Enhanced Activity in P. aeruginosa (fold enhancement of antibiotic activity / EPI concentration): levofloxacin as antibiotic, EPI at 12.5 (μg)
Method: as §1, §2, §3

`C[C@H]1COc2c(N3CCN(C)CC3)c(F)cc3c(=O)c(C(=O)O)cn1c23` [levofloxacin, reference compound] showed an MIC ([1]; ATCC27853, P. aeruginosa ATCC 27853, read-out: MIC of levofloxacin in the absence of EPI) of 1 µg/mL.

For `CO/N=C(\C(=O)N[C@@H]1C(=O)N2C(C(=O)[O-])=C(C[N+]3(C)CCCC3)CS[C@H]12)c1csc(N)n1` [cefepime, reference compound], the “% Survival (72 hr) Antibiotic Only” value ([2]; 250 ul) was 25%***** and the MIC [3] was 16 µg/mL.

In the case of `NCCC[C@H](N)CNC(=O)c1nc2cc(-c3ccc(F)cc3)cc(C(F)(F)F)c2[nH]1` [Example 3, (S)—N-(2,5-diaminopentyl)-5-(4-fluorophenyl)-7-(trifluoromethyl)-1H-benzo[d]imidazole-2-carboxamide Dihydrochloride], the “Enhanced Activity in E. coli (fold enhancement of antibiotic activity / EPI concentration)” value [4] is reported as 8×/6.25, the “MIC of levofloxacin in the presence of EPI” value ([5]; 6.25 μg/mL of Example 3) is reported as 0.016 µg/mL and the “reduction of the MIC of levofloxacin relative to absence of EPI” value ([5]; 6.25 μg/mL of Example 3) is reported as 64 fold. For the same molecule, the “Enhanced Activity in P. aeruginosa (fold enhancement of antibiotic activity / EPI concentration)” value [5] was 64×/12.5 and the MIC ([1]; ATCC27853, read-out: intrinsic MIC of the EPI) was 25 µg/mL.

For `NC[C@H]1CN[C@H](CNC(=O)c2nc3cc(-c4ccc(F)cc4)ccc3[nH]2)C1` [Example 22, N-(((2S,4S)-4-(aminomethyl)pyrrolidin-2-yl)methyl)-5-(4-fluorophenyl)-1H-benzo[d]imidazole-2-carboxamidedihydrochloride], the “% Survival (72 hr) Antibiotic + EPI” value ([2]; 250 ul + Example 22 2.0 mg/ml b.i.d.) was 75%, the “Enhanced Activity in E. coli (fold enhancement of antibiotic activity / EPI concentration)” value [4] was 2×/6.25 and the “Enhanced Activity in P. aeruginosa (fold enhancement of antibiotic activity / EPI concentration)” value [5] was 32×/12.5.
